According to US4696920A, “Certain 2-substituted 1,3-propylidenediphosphonate derivatives, pharmaceutical compositions containing them and their use as antihypertensive agents” (priority 1984, dated 1987):
“Also recorded” adds a separate entry of the source.

What was measured:
[1] = tested on: calcium channel binding site for [^3 H]-Nitrendipine (rat brain membranes); test: [^3 H]-Nitrendipine binding to rat brain membranes; parameters: species or system rat (male Wistar); details: Table 1a; for Specifically bound [^3 H]-Nitrendipine % of control value: compound concentration 1.0 μM; for Bound ^3 H at 1.0 μM / Bound ^3 H at 0.1 μM: ratio of [^3 H]-Nitrendipine bound at 1.0 and 0.1 μM compound
Procedure, shortened: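 Cerebral cortex membranes from male Wistar rats (400 μg protein/tube) were incubated with [3H]-nitrendipine and compounds in 50 mM Tris-HCl pH 7.4/150 mM NaCl/1 mM CaCl2 under subdued light, ethanol ≤0.1%. Bound radioligand was collected by GF/B filtration and counted; data are percent specific binding versus control, with compounds judged at 1.0 μM final.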

[2] = tested on: rat trachea contraction induced by KCl depolarization; test: KCl-induced rat trachea contraction; parameters: species or system rat (male SHR, Okamoto-Aoki); details: for activity at 1 µM: Rattus norvegicus, 40 min, read-out: Contraction (% max.); for activity on KCl-induced trachea contraction (in words): final concentration 1.0 μM
Procedure, shortened: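 Spiral trachea strips from male SHR rats were held in Krebs-Ringer (pH 7.4, 95/5 O2/CO2, 37±1° C) under 1.5–2 g tension, and contraction was measured isometrically. After a 65 mM KCl plateau, drugs (1.0 μM final) were added. Residual contraction at 40 min was expressed as % of the initial KCl response.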

[3] = tested on: isolated rat atrium (atrium rate); test: Chronotropic activity in isolated rat atrium; parameters: species or system rat (male SHR, Okamoto-Aoki); details: 5.0 × 10^-6 M, mean ± SEM, read-out: Decrease in atrium rate (% pretest)
Experimental: Spontaneously hypertensive male rats (SHR) (Okamoto-Aoki strain) were anesthetized with Pentobarbital (Nembutal Abbott, 60 mg/kg, i.p.). The hearts were quickly excised and both atria were dissected free from adjacent cardiac tissues. The atria were immediatly placed in a 50 ml Krebs-Ringer bath with the following composition (mM): NaCl, (120.0); KCl, (5.63); CaCl2, (2.0); MgCl2, (2.10); NaHCO3, (25.0); Glucose, (9.7) (pH 7.4). The solution was continuously bubbled with a O2 /CO2 mixture (95/5) and maintained at 37±1° C. The atrium was fixed to an optical displacement transducer (IITC, USA) under a resting tension of 1 g in order to measure atrial rate. The preparation was allowed to equilibrate for 40 min then cumulative dose-response curves were determined for each test compound (0.5-5 μMole/l). Maximum effect was normally obtained within 30-40 min. for each concentration.
Stock solutions of the 1,3-diphosphonates were generally prepared in 0.9% saline and water insoluble compounds were prepared in 50% ethanol. […] When tested at the concentration of 5.0×10^-6 M a decrease in atrium rate of more than 5% was considered as significant.
All data are presented as % decrease of initial atrium rate (mean values±SEM). A potent negative chronotropic effect was found with all compounds tested (table 3).

[4] = tested on: mean blood pressure in rat; test: Acute intravenous hypotensive activity in anesthetized rats; type: in vivo, rat (male Wistar); details: for hypotensive activity (in words): acute i.v., Table 4
Experimental: Male Wistar rats were anesthetized with Pentobarbital (Nembutal, 60 mg/kg i.p.) and heparinized (5 mg/kg i.p.). After tracheotomy the right carotid was cannulated (catheter PE 50); blood pressure was measured with a pressure transducer (Statham P 23 db) and recorded on a polygraph (Beckman).
Animals received 0.5 and 1.5 mg/kg of the test compounds. Less than 100 μl of test compounds dissolved in 0.9% saline were injected in the jugular vein. Highly water insoluble compounds were suspended in 2% Tween-80. Injection of the vehicle alone had no detectable hypotensive effect.
Results presented are expressed as percent decrease in initial mean blood pressure (Mean±SEM).

[5] = tested on: drug receptor sites associated with calcium channels; details: known calcium antagonists; cited from earlier work
[6] = tested on: slow inward current of the action potential; details: classical calcium antagonists; cited from earlier work
[7] = Rattus norvegicus, iv, read-out: Decrease in mean blood pressure (% pretest)

SMILES	modulation of [^3 H]-Nitrendipine binding (in words) [1]	Specifically bound [^3 H]-Nitrendipine % of control value [1]	Bound ^3 H at 1.0 μM / Bound ^3 H at 0.1 μM [1]	activity at 1 µM [2] [%]	activity on KCl-induced trachea contraction (in words) [2]	inhibition at 5 µM [3] [%]	inhibition in vivo at 0.5 mg/kg [4, 7] [%]	hypotensive activity (in words) [4]	inhibition in vivo at 1 mg/kg ([4]; Rattus norvegicus, iv, 1.0 mg/kg, known hypotensive drugs, mean ± SEM, read-out: Decrease in mean blood pressure (% pretest)) [%]	effect on [^3 H]-Nitrendipine binding (in words) [5]	inhibition of slow inward current (in words) [6]
CCCCOP(=O)(CC(Cc1ccccc1)CP(=O)(OCCCC)OCCCC)OCCCC [Compound 73, Tetrabutyl 2-benzyl-1,3-propylidenediphosphonate]	strong inhibitors	81 % of control value	0.862	46.2 ± 1.8	potent pharmacological activity	18.8 ± 11.2	50 ± 3.8	hypotensive activity superior to that of classical hypotensive drugs and of the calcium antagonists used as references	–	–	–
CCCCOP(=O)(CC(CCc1ccccc1)CP(=O)(OCCCC)OCCCC)OCCCC [Compound 74]	–	17 % of control value	0.380	35 ± 1.2	potent pharmacological activity	8.3 ± 4.5	50.8 ± 2.7	hypotensive activity superior to that of classical hypotensive drugs and of the calcium antagonists used as references	–	–	–
CCCCOP(=O)(CC(CCCc1ccccc1)CP(=O)(OCCCC)OCCCC)OCCCC [Compound 75, Tetrabutyl 2-(3-phenylpropyl)-1,3-propylidenediphosphonate]	strong inhibitors	22 % of control value	0.354	70 ± 3	potent pharmacological activity	14.8 ± 4.8	22.8 ± 1.6	–	–	–	–
CCCCOP(=O)(CC(Cc1cccc2ccccc12)CP(=O)(OCCCC)OCCCC)OCCCC [Compound 83]	strong inhibitors	36 % of control value	0.548	62.5 ± 11.5	potent pharmacological activity	4.4 ± 0.6	10.6 ± 0.5	–	–	–	–
COc1ccc([C@@H]2Sc3ccccc3N(CCN(C)C)C(=O)[C@@H]2OC(C)=O)cc1 [Diltiazem]	–	–	–	–	–	–	–	–	47.9	stimulators; also recorded: enhances [^3 H]Nitrendipine binding	inhibit with very high specificity the slow inward current of the action potential
COC(=O)C1=C(C)NC(C)=C(C(=O)OC)C1c1ccccc1[N+](=O)[O-] [Nifedipine]	–	–	–	–	–	–	–	–	–	–	inhibit with very high specificity the slow inward current of the action potential
